Like-named read-outs stand apart in the source and are kept apart here.
What was measured:
Type in all cases: in vivo
[1] = test system: two spotted spidermite (Tetranychus urticae), OP-resistant; assay: Tetranychus urticae - spray test, OP-resistant; conditions: French beans
Protocol: (§1) Formula for the efficacy of the combination of two compounds • The expected efficacy of a given combination of two compounds is calculated as follows (see Colby, S.R., “Calculating Synergistic and antagonistic Responses of Herbicide Combinations”, Weeds 15, pp. 20-22, 1967): • If • X is the efficacy expressed in % mortality of the untreated control for test compound A at a concentration of m ppm respectively m g/ha, • Y is the efficacy expressed in % mortality of the untreated control for test compound B at a concentration of n ppm respectively n g/ha, • E is the efficacy expressed in % mortality of the untreated control using the mixture of A and B at m and n ppm respectively m and n g/ha, • then is
(§2) • Solvent: 78.0 parts by weight acetone • 1.5 parts by weight dimethylformamide • Emulsifier: alkylaryl polyglycol ether
(§3) To produce a suitable preparation of active compound, 1 part by weight of active compound is mixed with the stated amount of solvents and is diluted with water, containing an emulsifier concentration of 1000 ppm, to the desired concentration. To produce a suitable preparation of a spore suspension the spores are diluted with emulsifier containing water to the desired concentration. Further test concentrations are prepared by dilution with emulsifier containing water.
French beans (Phaseolus vulgaris) which are heavily infested with all stages of the two spotted spidermite (Tetranychus urticae), are sprayed with a preparation of the active ingredient of the desired concentration.
After the specified period of time, mortality in % is determined. 100% means all spider mites have been killed and 0% means none of the spider mites have been killed. The mortality values determined thus are recalculated using the Colby-formula (see sheet 1).

[2] = test system: fall armyworm larvae (Spodoptera frugiperda); assay: Spodoptera frugiperda - spray test; conditions: maize leaf sections; for mortality at 3.75 g/ha: 3.75 g ai/ha
Protocol: as §1, §2, §3
Maize (Zea mais) leaf sections are sprayed with a preparation of the active ingredient of the desired concentration. Once dry, the leaf sections are infested with fall armyworm larvae (Spodoptera frugiperda).
After the specified period of time, mortality in % is determined. 100% means all caterpillars have been killed and 0% means none of the caterpillars have been killed. The mortality values determined thus are recalculated using the Colby-formula (see sheet 1).

[3] = test system: mustard beetle larvae (Phaedon cochleariae); assay: Phaedon cochleariae - spray test; conditions: foliar; for mortality at 0.8 g/ha: 0.8 g ai/ha, after 6 d
Protocol: as §1
• Solvent: 78.0 parts by weight of acetone • 1.5 parts by weight of dimethylformamide • Emulsifier: alkylaryl polyglycol ether
as §3
Chinese cabbage (Brassica pekinensis) leaf-disks are sprayed with a preparation of the active ingredient of the desired concentration. Once dry, the leaf disks are infested with mustard beetle larvae (Phaedon cochleariae).
After the specified period of time, mortality in % is determined. 100% means all beetle larvae have been killed and 0% means none of the beetle larvae have been killed. The mortality values determined thus are recalculated using the Colby-formula (see sheet 1).

[4] = test system: green peach aphid (Myzus persicae); assay: Myzus persicae - spray test; conditions: foliar, 24 h, after 1 d, Chinese cabbage leaf disks, read-out: Efficacy in % after 1^d (mortality)
Protocol: as §1, §2
as §3, with “Further test concentrations are prepared by dilution with emulsifier containing water.” left out
After the specified period of time, mortality in % is determined. […] The mortality values determined thus are recalculated using the Colby-formula (see sheet 1).

[5] = 144 h, Chinese cabbage leaf disks, read-out: Efficacy in % after 6^d (mortality)

Spinosad
Efficacy in % after 6^d (mortality) ([1]; 20 g ai/ha): 0%
Efficacy in % after 6^d (mortality) ([2]; 0.8 g ai/ha, after 6 d): 0%
Efficacy in % after 2^d (mortality) ([2]; 4 g ai/ha, after 2 d): 50%

Spinetoram
Efficacy in % after 6^d (mortality) ([1]; 0.08 g ai/ha): 0%
Efficacy in % after 2^d (mortality) ([1]; 0.4 g ai/ha, after 2 d): 0%
Efficacy in % after 6^d (mortality) ([2]; 0.032 g ai/ha, after 6 d): 0%
Efficacy in % after 2^d (mortality) ([2]; 0.08 g ai/ha, after 2 d): 67%

CNC(=O)c1cc(C#N)cc(C)c1NC(=O)c1cc(Br)nn1-c1ncccc1Cl [Cyantraniliprole]
mortality at 4 g/ha ([3]; 48 h, 4 g ai/ha, after 2 d, Chinese cabbage leaf disks, read-out: Efficacy in % after 2^d (mortality)): 0%
mortality at 0.8 g/ha [3, 5]: 0%

CNC(=O)Oc1cc(C)c(SC)c(C)c1 [Methiocarb]
mortality at 10 g/ha ([3]; in Brassica rapa, 144 h, read-out: Efficacy in % after 6^d (mortality)): 50%

CNC(=O)c1cc(Cl)cc(C)c1NC(=O)c1cc(Br)nn1-c1ncccc1Cl [Chlorantraniliprole]
mortality at 0.8 g/ha [3, 5]: 33%
mortality at 0.8 g/ha ([2]; Spodoptera frugiperda, 48 h, 0.8 g ai/ha, after 2 d, read-out: Efficacy in % after 2^d (mortality)): 67%
mortality at 0.16 g/ha ([2]; Spodoptera frugiperda, 144 h, 0.16 g ai/ha, after 6 d, read-out: Efficacy in % after 6^d (mortality)): 0%

CS/C(C)=N\OC(=O)N(C)SN(C)C(=O)O/N=C(\C)SC [Thiodicarb]
mortality at 3.75 g/ha ([2]; Spodoptera frugiperda, 48 h, after 2 d, read-out: Efficacy in % after 2^d (mortality)): 0%
mortality at 7.5 g/ha ([2]; Spodoptera frugiperda, 48 h, 7.5 g ai/ha, after 2 d, read-out: Efficacy in % after 2^d (mortality)): 67%
mortality at 3.75 g/ha ([2]; Spodoptera frugiperda, 144 h, after 6 d, read-out: Efficacy in % after 6^d (mortality)): 0%

CN1COCN(Cc2cnc(Cl)s2)/C1=N\[N+](=O)[O-] [Thiamethoxam]
mortality at 0.8 g/ha ([4]; 0.8 g ai/ha): 0%

CN/C(=N\[N+](=O)[O-])NCc1cnc(Cl)s1 [Clothianidin]
mortality at 20 g/ha ([2]; Spodoptera frugiperda, 144 h, 20 g ai/ha, after 6 d, read-out: Efficacy in % after 6^d (mortality)): 0%

N#C/N=C1\SCCN1Cc1ccc(Cl)nc1 [Thiacloprid]
mortality at 20 g/ha ([1]; Tetranychus urticae, 48 h, 20 g ai/ha, after 2 d, read-out: Efficacy in % after 2^d (mortality)): 40%
mortality at 4 g/ha ([4]; 4 g ai/ha): 0%
